Drawing on ChEMBL document CHEMBL2321746, “Cloning, characterization, and sulfonamide and thiol inhibition studies of an α-carbonic anhydrase from Trypanosoma cruzi, the causative agent of Chagas disease” (J Med Chem, 2013), this text covers inhibition for nine molecules.

The structures appear in SMILES notation.

Holding throughout (type): functional
Test [1] deals with Trypanosoma cruzi. The experiment in a line: Antitrypanosomal activity against Trypanosoma cruzi Y epimastigotes at 256 uM incubated for 48 hrs by resazurin dye reduction based ELISA method. A general note: The colour change of resazurin is a common sign of viable cells or microbes.
Test [2] concerns Trypanosoma cruzi. Description: Antitrypanosomal activity against Trypanosoma cruzi DM28 epimastigotes at 256 uM incubated for 48 hrs by resazurin dye reduction based ELISA method. The settings on record: DM28, 48 h.
For test [3], the system named is Trypanosoma cruzi. Description: Antitrypanosomal activity against Trypanosoma cruzi Y epimastigotes at 128 uM incubated for 48 hrs by resazurin dye reduction based ELISA method.
Test [4] has as its system Trypanosoma cruzi. Description: Antitrypanosomal activity against Trypanosoma cruzi Y epimastigotes at 64 uM incubated for 48 hrs by resazurin dye reduction based ELISA method.
Test [5] has as its system Trypanosoma cruzi. Description: Antitrypanosomal activity against Trypanosoma cruzi Y epimastigotes at 8 uM incubated for 48 hrs by resazurin dye reduction based ELISA method.
Test [6] has as its system Trypanosoma cruzi. Description: Antitrypanosomal activity against Trypanosoma cruzi Y epimastigotes at 16 uM incubated for 48 hrs by resazurin dye reduction based ELISA method.
The test system of test [7] is Trypanosoma cruzi. The experiment in a line: Antitrypanosomal activity against Trypanosoma cruzi Y epimastigotes at 32 uM incubated for 48 hrs by resazurin dye reduction based ELISA method.
Test [8] deals with Trypanosoma cruzi. Description: Antitrypanosomal activity against Trypanosoma cruzi DM28 epimastigotes at 128 uM incubated for 48 hrs by resazurin dye reduction based ELISA method. The settings on record: DM28, 48 h.

Broadly, the inhibition is the share of the control response that was lost under treatment. Turning to `C/C(=N/NC(=O)Nc1nnc(S)s1)c1ccc(Cl)cc1`, the inhibition at 256 µM in the test with Trypanosoma cruzi [1] came out at 32%; with Trypanosoma cruzi [2], 0%.
In the test on Trypanosoma cruzi [3], `O=C(Cn1ccnc1[N+](=O)[O-])NCc1ccccc1` [BENZNIDAZOLE] showed an inhibition at 128 µM of 80%. For the same molecule, testing at 256 µM in the test with Trypanosoma cruzi [1] gave an inhibition of 91%. Further, at 64 µM the inhibition with Trypanosoma cruzi [4] was 75%. 8 µM produced 51% inhibition in the test on Trypanosoma cruzi [5]. In the test on Trypanosoma cruzi [6], testing at 16 µM gave an inhibition of 66%. The same molecule returned an inhibition at 32 µM with Trypanosoma cruzi [7] of 60%.
For the molecule `O=C(N/N=C1\C(=O)Nc2ccc(Br)cc21)Nc1n[nH]c(=S)s1`, the inhibition at 256 µM in the test with Trypanosoma cruzi [1] came to 20%; in the test with Trypanosoma cruzi [2] it was 22%.
Consider `O=C(N/N=C\c1cccc(Br)c1)Nc1nnc(S)s1`, for which the inhibition at 256 µM in the test with Trypanosoma cruzi [1] amounted to 58%; in the test on Trypanosoma cruzi [2], 34%.
With `COc1cccc(/C=N\NC(=O)Nc2nnc(S)s2)c1`, 128 µM produced 44% inhibition in the test on Trypanosoma cruzi [3]. Further, the results for the inhibition at 256 µM in the test with Trypanosoma cruzi [1] and with Trypanosoma cruzi [2] were 77% and 43%, respectively.
In turn, `O=C(N/N=C\c1ccc(Cl)cc1)Nc1nnc(S)s1` came in with an inhibition at 128 µM in the test on Trypanosoma cruzi [3] of 51%. The results for the inhibition at 256 µM in the test on Trypanosoma cruzi [1] and with Trypanosoma cruzi [2] were 67% and 10%, respectively.
Turning to `O=C(N/N=C\c1ccccc1)Nc1nnc(S)s1`, the inhibition at 128 µM in the test with Trypanosoma cruzi [3] was 84%; in the test on Trypanosoma cruzi [8], 43%. Besides, the inhibition at 256 µM in the test on Trypanosoma cruzi [1] and in the test with Trypanosoma cruzi [2] was 87% each time. In addition, the inhibition at 64 µM in the test with Trypanosoma cruzi [4] was determined as 64%.
Turning to `C/C(CC(C)C)=N/NC(=O)Nc1nnc(S)s1`, the inhibition at 256 µM with Trypanosoma cruzi [1] was 43%; in the test with Trypanosoma cruzi [2], 20%.
With `O=C(N/N=C1\C(=O)Nc2ccccc21)Nc1n[nH]c(=S)s1`, the inhibition at 256 µM in the test with Trypanosoma cruzi [1] turned out to be 30%; in the test with Trypanosoma cruzi [2], 9%.
